Reference: US20060228776A1, “PINK-1 promoter” (NEUROLOGIX, INC., priority 2004, published 2006)

Legend:
PTEN = experiment: Western blot of p-PTEN/total PTEN ratio in toxin-treated SH-SY5Y cells; type: cell-based, human
Procedure: (§1) SH-SY5Y cells were maintained in Dulbecco's modified medium (DMEM) supplemented with 10% FBS, 100 IU/mL penicillin and […] streptomycin at 37 °C under 5% CO2. Toxins (Sigma) were freshly prepared and added to the cultures and incubated for various lengths of time.
(§2) Blots were incubated with antibodies against PTEN, Phospho-PTEN, and Caspase-3 (Cell Signaling) followed by secondary antibodies and enhanced chemiluminescent detection (Amersham Biosciences).
PTEN and phosphorylated PTEN (p-PTEN) were determined by using western blot analysis. FIG. 6C show PTEN activity was determined by comparing the ratio of p-PTEN/total PTEN. A decrease in p-PTEN/total PTEN is correlated with higher PTEN activity. Results were analyzed by Image J software and p-PTEN/total PTEN results were shown graphically. […] Substantia nigra pars compacta were dissected and harvested for western blot analysis as previously described.

[1] = tested on: human neuroblastoma SH-SY5Y; experiment: Cell viability, CellTiter 96 Aqueous One Solution Cell Proliferation Assay; type: cell-based
Procedure: as §1
To measure cell viability and apoptosis CellTiter 96 Aqueous One Solution Cell Proliferation Assay (Promega) and propidium iodide (Sigma) were used, respectively.

Caspase-3 = experiment: Western blot of Caspase-3 active metabolite in SH-SY5Y cells; type: cell-based, human; conditions: high (mM) doses of MPP+, 24 hrs
Procedure: as §1, §2

PINK1 promoter = PINK1 promoter analysis, Dual Glo Luciferase Assay in transfected HEK293 cells; type: cell-based, human; conditions: promoter alone vs no promoter (pGL2-basic) or SV40 promoter (pGL2-control); HEK293, 48 hrs; p<0.05
Procedure: HEK293 cells were transfected with PINK1pr2220 and various controls for 48 hrs. Promoter activity was determined using Dual Glo Luciferase Assay system (Promega) and normalized against renilla luciferase.
In FIG. 3(A) the results are represented as the level of firefly luciferase activity driven by the PINK1 promoter normalized against renilla luciferase activity from a second plasmid used to control for transfection variability. Each experiment was replicated in triplicate, and the entire study was replicated on at least two separate occasions. […] Co-transfection with PTEN induced PINK1 promoter activity from 65% to 5 fold in various replicate experiments compared with PINK1 alone (**p<0.05; two-tailed t-test), while a PTEN point-mutant which lacks lipid phosphatase activity (1 mPTEN) had no effect.
Data is the result of triplicate experiments analyzed relative to promoter activity of PINK1pr2220 alone (*p<0.05; two-tailed t-test).
All plasmids were kept at constant amounts and ratios, with empty plasmid replacing constructs not used for individual studies. Data is the result of triplicate experiments analyzed relative to promoter activity of PINK1pr2220 alone (*p<0.05; two-tailed t-test).

Question: What does the source list for `NCCc1cc(O)c(O)cc1O` [6-OHDA, 6-hydroxydopamine]?
Answer: p-PTEN/total PTEN ratio (PTEN; n=4): lower p-PTEN/total PTEN ratio; cell viability ([1]; 6-OHDA): reduced cell viability

Question: What does the source list for `C[n+]1ccc(-c2ccccc2)cc1` [MPP+]?
Answer: p-PTEN/total PTEN ratio (PTEN; 24 hrs, escalating high doses of MPP+ (mM)): No change; p-PTEN/total PTEN ratio (PTEN; low dose MPP+ (100 μM), various time points): reduction; cleavage of Caspase-3 active metabolites (Caspase-3): not cleaved; cell viability ([1]; MPP+ 24 hr treatment): reduced cell viability

Question: Which “PINK1 promoter activity (firefly luciferase normalized against renilla luciferase)” value (PINK1 promoter) does the source give for “PINK1 promoter: 2220bp human DNA sequence upstream of the PINK1 transcriptional start site, driving firefly luciferase” here?
Answer: significant promoter activity
